According to patent US9395368B2, “Methods, agents and peptides for inducing an immune response to matrix metalloproteinase-2 expressing tumors” (New York University, priority 2010, dated 2016):

System: MMP-2-specific CD4+ T cell clones
Assay: Epitope specificity of MMP-2-specific CD4+ T cell clones with individual peptides (ELISA)
Format: cell-based, human
Details: individual peptides 2 μM; TNFα, IL-4 and IFNγ production
Description: (A) MMP-2-specific CD4^+ T cell clones were generated and characterized as described in Experimental Procedures. Clone HD9828/52 is shown as a representative example. Epitope specificities were assessed after overnight stimulation with individual peptides (2 μM). IFNγ, TNFα and IL-4 release was measured by ELISA. (B) All MMP-2-specific CD4^+ T cell clones were characterized by staining for CD4, CD8 and TCR Vβ chain expression. Clone HD9828/52 is shown as a representative example. (C) To establish HLA class-II isotype restriction, CD4^+ T cell clones were stimulated by corresponding peptides in the absence or presence of blocking mAb (10 μg/mL) for HLA-DP, HLA-DQ or HLA-DR and IFNγ release was measured by ELISA. (D) Purified CD4^+/CD25^− cells were stimulated for 12 days by autologous DCs incubated with MMP-2 protein (10 μM) and subsequently washed. MMP-2-specific CD4^+ T cells were detected by intracellular staining of IFNγ, TNFα and IL-4 after 6 hours of stimulation with MMP-2 peptide pool (2 μM). Numbers in the upper right quadrants are the percentages of each population.
All 19 MMP-2-specific CD4^+ T cell clones were characterized for epitope specificity by testing clone responses to every peptide separately. TCR Vβ expression was assessed by surface staining HLA class-II isotype restriction was determined by using blocking mAb to HLA-DP, -DQ and -DR. Results listed for the T cell clone HD9828/MC1/52 are shown in FIG. 1 and FIG. 11, and are highlighted in bold italics.
T Cell culture, stimulation and priming. Peripheral blood mononuclear cells (PBMCs) were purified from healthy donor-(HD) or cord blood donor-(CB) derived buffy coats (New York Blood Center) by Ficoll-Paque Plus (GE Healthcare) centrifugation. CD4^+/CD25^− cells were enriched (>90%) by magnetic cell sorting (Miltenyi Biotec) and primed/stimulated for 12-15 days either with irradiated (35Gy) autologous CD4^− cells or with autologous mature DCs in IMDM (GIBCO) supplemented with 1 mM HEPES (Life Technologies), 2 mM L-glutamine (Sigma), […] (Sigma) and 5% heat inactivated pooled human serum (PHS; Valley Biomedical) in the presence of rhIL-2 (10 UI/mL) and IL7 (5 ng/mL) (R&D Systems). Antigen presenting cells (CD4^− cells or DCs) were loaded either with peptides (2 μM) or with the MMP-2 protein (10 μg/mL) for 2 and 5 h, respectively. DCs were matured using the TLR3 agonist poly(I:C) at 5 μg/mL/10^6 DCs (Amersham). To generate T cell clones, we originally relied on our published methodology (Godefroy et al., 2006; Godefroy et al., 2007; the entire contents of each of which is incorporated herein by reference), involving enrichment of IFNγ-secreting cells upon short-term culture and peptide stimulation to generate MMP-2 responsive clones. Briefly, CD4^+ T cells were stimulated by CD4^− cells irradiated and pulsed with peptides for 12 days in the presence of rhIL-2 and rhIL-7. CD4^+ T cells were then restimulated with peptides for 3 hours before capturing IFNγ-secreting specific cells using a bispecific antibody coating T cells and capturing produced IFNγ. Positive cells were purified magnetically before being cloned. Although MMP-2-specific cells could be isolated, it was realized that IFNγ secretion was marginal compared to their secretion of IL-4 and TNFα. IFNγ-secreting cells in response to MMP-2 peptide pool were enriched by cytokine-guided magnetic cell sorting (Miltenyi Biotec) as described above and cloned the following day by limiting dilution in the presence of irradiated allogeneic PBMCs, 1 μg/mL phytohemagglutinin-L (Sigma) and 150 UI/mL rhIL-2. Tumor infiltrating lymphocytes (TILs) were provided by Pr. F. Jotereau and B. Dréno. They were obtained from tumor-invaded lymph nodes of melanoma patients (stage Mb) and expanded ex vivo. These patients received autologous TILs and IL-2 infusions in a clinical trial (Labarriere et al., 2002). […]

| Sequence | recognition by CD4+ T cell clones |
| --- | --- |
| AFNWSKNKKTYIFAGDKFWR (listed as Homo sapiens) [P571-590] | recognized |
| ESCTSAGRSDGKMWCATTAN (listed as Homo sapiens) [P361-380] | recognized |
| FFKGAYYLKLENQSLKSVKF (listed as Homo sapiens) [P631-650] | recognized |
| GCLLSHAAAAPSPIIKFPGD (listed as Homo sapiens) [P21-40] | recognized |
| GFPKLIADAWNAIPDNLDAV (listed as Homo sapiens) [P601-620] | recognized |
| GYPKPLTSLGLPPDVQRVDA (listed as Homo sapiens) [P551-570] | recognized |
| MEALMARGALTGPLRALCLL (listed as Homo sapiens) [P1-20] | recognized |
| RIHDGEADIMINFGRWEHGD (listed as Homo sapiens) [P161-180] | recognized |
| TGPLRALCLLGCLLSHAAAA (listed as Homo sapiens) [P11-30] | recognized |
| VAPKTDKELAVQYLNTFYGC (listed as Homo sapiens) [P41-60] | recognized |
| VDLQGGGHSYFFKGAYYLKL (listed as Homo sapiens) [P621-640] | recognized |
